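Assay format: 96-well plates, 48-hour exposure. GI50: concentration for 50% inhibition of growth.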 Calls of active or inactive are those of the source. No stated cut-off is given here; in the data, active = GI50 up to about 1.1 µM and inactive = higher.
What was measured:
Assay in all cases: DTP human tumour cell line panel, 48 h
[1] = system: SF-295
[2] = system: SW-620
[3] = system: CAKI-1
[4] = system: SF-268
[5] = system: SN12C
[6] = system: U-251
[7] = system: SR
[8] = system: NCI-H23
[9] = system: LOX IMVI
[10] = system: SK-MEL-28
[11] = system: HL-60
[12] = system: MDA-MB-435
[13] = system: OVCAR-5
[14] = system: TK-10
[15] = system: NCI-H226
[16] = system: COLO 205
[17] = system: CCRF-CEM
[18] = system: 786-0
[19] = system: OVCAR-8
[20] = system: HCC 2998

Measured: GI50

O=C(O)c1ccc(Oc2nc3ccccc3s2)cc1
inactive: [1] > 100 µM | [2] > 100 µM | [3] > 100 µM | [4] > 100 µM | [5] > 100 µM | [6] > 100 µM | [7] 85.7 µM | [8] > 100 µM | [9] > 100 µM | [10] > 100 µM | [11] > 100 µM | [12] > 100 µM | [13] > 100 µM | [14] > 100 µM | [15] > 100 µM | [16] > 100 µM | [17] > 100 µM | [18] > 100 µM | [19] > 100 µM

O=[N+]([O-])c1ccc(/C=N\N=c2/ccc([N+](=O)[O-])c[nH]2)cc1
inactive: [1] > 100 µM | [20] > 100 µM | [2] > 100 µM | [4] > 100 µM | [5] > 100 µM | [6] 69 µM | [8] > 100 µM | [10] > 100 µM | [11] > 100 µM | [12] > 100 µM | [13] > 100 µM | [14] > 100 µM | [15] > 100 µM | [16] > 100 µM | [17] > 100 µM | [18] > 100 µM | [19] > 100 µM

CCOC(=O)Cc1ccc(Nc2nc3cc(C(F)(F)F)ccc3nc2C(=O)OCC)cc1
inactive: [1] 63.2 µM | [2] > 100 µM | [3] 30.1 µM | [4] 37.3 µM | [5] > 100 µM | [6] 45.2 µM | [7] > 100 µM | [8] 34.6 µM | [9] > 100 µM | [10] > 100 µM | [11] > 100 µM | [12] > 100 µM | [13] > 100 µM | [14] 49.3 µM | [15] 17.6 µM | [16] > 100 µM | [18] 23.5 µM | [19] 67.5 µM

N#CCCN(CCCN(C(=O)N(c1ccccc1)c1ccccc1)c1ccccc1)C(=O)Nc1ccccc1
inactive: [1] 76.6 µM | [20] > 100 µM | [2] > 100 µM | [3] > 100 µM | [4] > 100 µM | [6] 92 µM | [8] > 100 µM | [9] > 100 µM | [10] > 100 µM | [11] 8.91 µM | [12] > 100 µM | [13] > 100 µM | [14] > 100 µM | [15] > 100 µM | [16] > 10 µM | [17] 15.9 µM | [18] > 100 µM | [19] 21.5 µM

COc1ccc(-c2cc(-c3ccncc3)nc(N)c2-c2ccc(F)cc2)cc1
inactive: [1] 80.9 µM | [2] 9.18 µM | [3] 32.3 µM | [4] 44 µM | [6] > 100 µM | [7] 4.19 µM | [8] 76 µM | [9] 22.8 µM | [12] 21.2 µM | [13] > 100 µM | [14] 35.2 µM | [15] 46.1 µM | [16] 5.43 µM | [17] > 100 µM | [18] 9.29 µM | [19] 41.3 µM

O=C(CCO)OCCCCCC/C=C\CCCCCC/C=C\CCCCCCCCOC(=O)CCO
inactive: [1] 18.3 µM | [20] 16.5 µM | [2] 26.6 µM | [3] 21.7 µM | [4] 18.5 µM | [5] 17.2 µM | [6] 16.7 µM | [8] 17.9 µM | [9] 18.4 µM | [10] 19.5 µM | [11] 12.2 µM | [12] 21.2 µM | [13] 18.3 µM | [14] 17.7 µM | [16] > 100 µM | [17] 3.05 µM | [18] 18.5 µM | [19] 18.5 µM

CCOC(=O)[C@@]12C[C@](/C=C/OC)(O[Si](C)(C)C)[C@@]13c1cc(OC)c(OC)cc1CCN3C(=O)C2O (some centres not stated)
inactive: [1] > 100 µM | [2] > 100 µM | [3] > 100 µM | [4] > 100 µM | [5] > 100 µM | [6] > 100 µM | [7] > 100 µM | [8] > 100 µM | [9] > 100 µM | [10] > 100 µM | [12] > 100 µM | [13] > 100 µM | [14] > 100 µM | [15] > 100 µM | [16] > 100 µM | [17] > 100 µM | [18] > 100 µM | [19] > 100 µM

CCOC(=O)Oc1cc2c(ccn2C)c2c1c1ccccc1n2C(=O)OCC
inactive: [1] > 100 µM | [2] > 100 µM | [3] > 100 µM | [4] > 100 µM | [5] > 100 µM | [6] > 100 µM | [7] > 100 µM | [8] > 100 µM | [9] > 100 µM | [10] > 100 µM | [12] > 100 µM | [13] > 100 µM | [14] > 100 µM | [15] > 100 µM | [16] > 100 µM | [17] > 100 µM | [18] > 100 µM | [19] > 100 µM
